Test results: PMC8653295 (Chemistry (Weinheim an Der Bergstrasse, Germany), 2021)
Several values for one entry are separate records, joined by “and”; a condition that tells them apart may be missing. Identical values can stand only once. Entries after “also recorded” stand apart in the source; their conditions may differ.

Columns and labels:
SARS‐CoV PL^pro = SARS‐CoV PL^pro (Severe acute respiratory syndrome coronavirus, UniProt P0C6X7); experiment: biochemical; format: biochemical; conditions: for inhibition of SARS-CoV PLpro: 10 µM
[1] = target: interaction of the RBD of the SARS‐CoV‐2 S protein with the ACE2 receptor (Severe acute respiratory syndrome coronavirus 2, UniProt P0DTC2); format: binding; conditions: for inhibition of the S/ACE2 interaction: 20 µM
SARS‐CoV‐2 = format: cell-based
SARS‐CoV‐2 PL^pro = SARS‐CoV‐2 PL^pro (Severe acute respiratory syndrome coronavirus 2, UniProt P0DTD1); experiment: biochemical; format: biochemical; conditions: for inhibition of SARS-CoV-2 PLpro: 1 µM

Compound | activity against SARS‐CoV PL^pro (in words) (SARS‐CoV PL^pro) | inhibition of SARS-CoV PLpro (SARS‐CoV PL^pro) | inhibition of the S/ACE2 interaction [1] | IC50 ([1]; read-out: IC50 as inhibitors of the S/ACE2 interaction) | concentration up to which no significant cytotoxic effects / tolerated well (CaLu‐3 cells) | concentration up to which no significant cytotoxic effects / tolerated well (Caco‐2 cells) | antiviral effect against SARS‐CoV‐2 replication (in words) (SARS‐CoV‐2) | concentration at which antiviral effects were shown (SARS‐CoV‐2) | activity against SARS‐CoV‐2 PL^pro (in words) (SARS‐CoV‐2 PL^pro) | inhibition of SARS-CoV-2 PLpro (SARS‐CoV‐2 PL^pro) | IC50 (SARS‐CoV PL^pro) | IC50 (SARS‐CoV‐2 PL^pro) | cytotoxicity (in words) (CaLu‐3 cells) | cytotoxicity (in words) (Caco‐2 cells) | IC50 SARS‐CoV PL^pro (SARS‐CoV PL^pro) | IC50 SARS‐CoV‐2 PL^pro (SARS‐CoV‐2 PL^pro)
[Cl-].[Cl-].[Ti+4].c1cc[cH-]c1.c1cc[cH-]c1 [Ti‐1, titanocene dichloride, reference compound] | inactive | 6% | 69% | 3900 ± 300 nM | ≥ 500 µM | ≥ 500 µM | active at 125 and 500 μM; also recorded: strongly blocked viral replication at a high dosage of 500 μM | higher than 100 μM | inactive | -13% | – | – | – | – | – | –
CCn1[c]([Au-][Cl])[n+](CC)c2cc(C(=O)OC)ccc21 [Au‐12] | – | – | 19% | – | – | – | at 6.25 and 25 μM concentrations efficiently inhibited; also recorded: antiviral activity starting at low micromolar concentrations | – | – | – | 330 ± 110 nM | 1100 ± 60 nM | – | – | – | –
Na12[SnO8Pd12(PO4)8] ⋅ 43H2O [POM‐2] | – | 100% | 50% | – | ≥ 200 µM | ≥ 200 µM | – | – | – | 66% | – | – | – | – | – | –
Rb6Na6[{(p‐tolyl)Sb}4(GeW9 O34)2] ⋅ 40H2O [POM‐7] | – | 92% | 98% | – | – | – | – | – | – | 67% | – | – | strongly toxic | strongly toxic | – | –
CCC(CC)COC(=O)[C@H](C)N[P@](=O)(OC[C@H]1O[C@@](C#N)(c2ccc3c(N)ncnn23)[C@H](O)[C@@H]1O)Oc1ccccc1 [Remdesivir, remdesivir, reference compound] | – | – | – | – | – | – | efficiently inhibited viral replication at low micromolar concentrations | – | – | – | – | – | – | – | – | –
O=C(O)CC([S-])C(=O)O.[Au+] (stereo not drawn) [Au‐2, aurothiomalate, reference compound] | – | 91% and > 50% | 18% | – | ≥ 500 µM | ≥ 500 µM | not active | – | – | 64% and > 50% | 690 ± 200 nM | 600 ± 250 nM | – | – | Submicromolar | Submicromolar
Rb5.5Na4.5[{(p‐tolyl)Sb}4(PW9O34)2] ⋅ 40H2O [POM‐6] | – | 80% | 91% | – | – | – | – | – | – | 58% | – | – | strongly toxic | strongly toxic | – | –
CO[C@H]1O[C@H](CO)[C@@H](O)[C@H](O)[C@H]1NC(=O)C1CCN(C(=S)[S-])CC1.[Au+3].[Br-].[Br-] [Au‐34] | – | 86% | 15% | – | ≥ 500 µM | ≥ 500 µM | inactive at low dosages; also recorded: completely blocked SARS‐CoV‐2 at 500 μM; also recorded: strongly blocked viral replication at a high dosage of 500 μM | – | – | 98% | 1150 ± 340 nM | 90 ± 40 nM | – | – | – | –
CO[C@H]1O[C@H](CNC(=O)C2CCN(C(=S)[S-])CC2)[C@@H](O)[C@H](O)[C@H]1O.[Au+3].[Br-].[Br-] [Au‐33] | – | 78% | 10% | – | ≥ 500 µM | ≥ 500 µM | inactive at low dosages; also recorded: completely blocked SARS‐CoV‐2 at 500 μM; also recorded: strongly blocked viral replication at a high dosage of 500 μM | – | – | 99% | 1040 ± 270 nM | 210 ± 40 nM | – | – | – | –
[Pd16Na2O26 (OH)3Cl3((CH3)2As)8] ⋅ 0.25Na(CH3)2AsO2 ⋅ 17H2O [POM‐11] | – | 100% | 75% | – | ≥ 200 µM | ≥ 200 µM | antiviral activity starting at low micromolar concentrations | 50 µM | – | 85% | – | – | – | – | – | –
